Data set [1] deals with HMGB1 in SiHa cells. Put plainly: Localization of HMGB1 by confocal microscopy. The data set is classed as cell-based, human. The note with it: 12 h; for HMGB1 fluorescence intensity: vs DMSO vehicle. As to the method: A total of 20 × 10^3 cells per well were added to 24-well plates and incubated for 24 h in DMEM with FBS. Then, the cells were washed with phosphate buffered saline (PBS 1X). The groups received the following treatments: VPA at 1.4 and 0.35 mM, HO-AAVPA at 0.2 and 0.005 mM, vehicle (DMSO 0.1%), and incubated for 12 h. After incubation, the cells were fixed with paraformaldehyde (PFA 4%) at 37 °C for 20 min and permeabilized (PBS Tween-Triton 0.5%) for 5 min. Subsequently, the cells were washed and the primary antibody, anti-HMGB1 (GTX101277, GeneTex, Alton Pkwy Irvine, CA, USA), was added at a ratio of 1:1000 and incubated overnight. The secondary antibody, donkey anti-rabbit IgG H&L (Alexa Fluor 647, Thermo Fisher Scientific, México City, Mexico), was added at a ratio of 1:1000 and incubated at 4 °C for 4 h. Finally, the slides were washed with PBS and mounted with Vectashield (Mounting Laboratories, Inc. Burlingame, CA, USA).
The images were collected and analyzed with an Axioskop 2 mot plus confocal fluorescence microscope (Carl Zeiss, Mexico City, Mexico) at EC Plan-Neofluar 20×–40×/0.5 Ph2: LP 650, LP 505.

Data set [2] addresses T1, HDAC1 (Homo sapiens, UniProt Q13547).
T1 construct: purchased Enzo Life Sciences BML-AK511
Put plainly: Fluor de LYS HDAC1 inhibitory activity assay. The data set is classed as biochemical. Particulars: 250 ng/well, 37 °C, 5 µM substrate; mean ± SE.

Details of data set [3]: method as in PMID 32387339, PMID 30236821, PMID 3146521. The note with it: rat model; ref [19],[20],[21]; cited from earlier work.
The target of data set [4] is T2, HDAC8 (Homo sapiens, UniProt Q9BY41).
T2 construct: purchased Enzo Life Sciences BML-AK518
T2 sequence (Q9BY41 1-377): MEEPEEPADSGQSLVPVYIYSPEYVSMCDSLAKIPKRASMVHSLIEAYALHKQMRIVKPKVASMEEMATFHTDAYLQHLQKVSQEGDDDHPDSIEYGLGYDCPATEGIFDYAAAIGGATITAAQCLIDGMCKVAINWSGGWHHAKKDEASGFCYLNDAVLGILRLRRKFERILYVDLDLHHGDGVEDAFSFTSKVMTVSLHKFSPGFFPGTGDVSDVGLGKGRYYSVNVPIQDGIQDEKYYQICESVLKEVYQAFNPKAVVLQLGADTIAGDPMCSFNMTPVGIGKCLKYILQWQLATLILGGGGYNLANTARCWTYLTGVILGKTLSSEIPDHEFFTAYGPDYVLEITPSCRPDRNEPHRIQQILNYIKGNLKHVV
Description: Fluor de LYS HDAC8 inhibitory activity assay. The data set is classed as biochemical.

Data set [5] relates to ROS (O2−·) levels in SiHa cells. Put plainly: Quantification of superoxide anion by electronic paramagnetic resonance. The note with it: 48 h. The data set is classed as cell-based, human. The method, then:
The SiHa cells (500 × 10^3) were seeded in a […] dish and kept at 37 °C in a humidified atmosphere with 5% CO2 until they reached 70% confluence. After, the cells were treated with two different concentrations of VPA and HO-AAVPA (1.4 and 0.2 mM) and maintained for 48 h, the experiment was performed in triplicate and used as a control for data comparison with the SiHa cells treated only with medium. Next, the cells were trypsinized and centrifuged at 3000 rpm for 10 min, and the cell pellet was treated with the radical scavenger CM-H (1 hydroxy-3-methoxycarbonyl-2,2, 5,5-tetramethyl pyrrolidine) diluted in Krebs buffer (99 mM NaCl, 4.69 mM KCl, 2.5 mM CaCl2 × 2H2O, 1.2 mM MgSO4 × 7 H2O, 2.5 mM NaHCO3, 1.03 mM KH2PO4, 5.6 mM D-Glucose, and 20 mM Na-HEPES) with sodium diethyldithiocarbamate trihydrate (DETEC; 5 μM) and deferoxamine methane sulfonate salt (DF 25 μM) at a 89:3:8% v/v ratio of Krebs buffer: DETEC:DF. The stock solution of CMH (10 mM) was used to dilute each sample to 0.5 mM. The CM-H solution and the sample preparation were processed inside a nitrogen atmosphere chamber. The samples containing CM-H were incubated for 30 min at 37 °C with constant shaking. After the samples were centrifuged at 3000 rpm for 15 min, 50 µL of the supernatant was taken up with capillaries (Corning, Glendale, CA, USA) inside the nitrogen chamber, and each of the capillaries were sealed on both sides to determine the EPR measurements.
The measurements of O2^−· formation were performed in a Bruker e-scan spectrometer with the following parameters recorded: magnetic field 3490 G, window: 60 G, amplitude: 1.5 G, gain: 56.4, power: 0.0155 mW; and frequency: 9.743 GHz. WinEPR Acquisition software was used to analyze the results. The intensity of each sample was measured and normalized to the cell number for each sample. Finally, the result was expressed as the intensity for 10,000 cells.

Data set [6] addresses T3, HDAC6 (Homo sapiens, UniProt Q9UBN7).
T3 construct: purchased Enzo Life Sciences BML-AK516
T3 sequence (Q9UBN7 1-1215): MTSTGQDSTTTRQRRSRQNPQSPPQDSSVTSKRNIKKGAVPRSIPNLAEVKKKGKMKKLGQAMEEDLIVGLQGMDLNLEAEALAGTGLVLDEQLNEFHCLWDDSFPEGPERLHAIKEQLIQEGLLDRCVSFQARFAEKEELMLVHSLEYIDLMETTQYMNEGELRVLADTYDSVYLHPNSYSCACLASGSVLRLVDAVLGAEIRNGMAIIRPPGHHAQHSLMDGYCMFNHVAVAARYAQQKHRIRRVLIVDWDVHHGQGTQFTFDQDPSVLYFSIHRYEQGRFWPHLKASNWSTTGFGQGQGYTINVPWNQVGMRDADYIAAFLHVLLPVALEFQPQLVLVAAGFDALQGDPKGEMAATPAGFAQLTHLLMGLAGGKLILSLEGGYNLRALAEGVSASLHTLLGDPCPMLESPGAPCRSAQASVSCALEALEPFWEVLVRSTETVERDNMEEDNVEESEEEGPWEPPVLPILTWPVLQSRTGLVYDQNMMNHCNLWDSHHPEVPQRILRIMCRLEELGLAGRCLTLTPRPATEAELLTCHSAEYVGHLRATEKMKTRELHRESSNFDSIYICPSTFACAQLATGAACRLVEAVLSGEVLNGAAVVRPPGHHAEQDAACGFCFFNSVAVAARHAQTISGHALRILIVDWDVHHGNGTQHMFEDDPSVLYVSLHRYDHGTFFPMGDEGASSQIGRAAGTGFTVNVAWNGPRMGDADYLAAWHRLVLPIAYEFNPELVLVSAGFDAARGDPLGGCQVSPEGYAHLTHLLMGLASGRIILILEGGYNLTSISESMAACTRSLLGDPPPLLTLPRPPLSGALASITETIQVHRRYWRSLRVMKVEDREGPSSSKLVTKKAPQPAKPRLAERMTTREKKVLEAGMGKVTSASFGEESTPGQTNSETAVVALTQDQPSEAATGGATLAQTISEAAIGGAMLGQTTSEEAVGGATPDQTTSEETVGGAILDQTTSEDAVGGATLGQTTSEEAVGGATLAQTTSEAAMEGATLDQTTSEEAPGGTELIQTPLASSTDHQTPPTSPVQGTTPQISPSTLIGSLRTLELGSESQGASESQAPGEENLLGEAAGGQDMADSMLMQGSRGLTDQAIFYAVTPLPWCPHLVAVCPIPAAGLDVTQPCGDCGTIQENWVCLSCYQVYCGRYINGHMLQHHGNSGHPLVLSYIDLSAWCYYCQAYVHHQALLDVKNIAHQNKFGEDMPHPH
Put plainly: Fluor de LYS HDAC6 inhibitory activity assay. The data set is classed as biochemical.

Data set [7] relates to SiHa cells. Put plainly: Cell viability by MTT assay. Particulars: 48 h. The data set is classed as cell-based, human. The method, then: (§1) SiHa cells were kindly donated by Dr. Nicolás Villegas Sepulveda from the Department of Molecular Biomedicine, […], México. SiHa cells were cultured in Dulbecco’s modified Eagle’s medium (DMEM Gibco, Life Technologies, Invitrogen, Sigma-Aldrich Co., Toluca City Mexico), supplemented with 10% fetal bovine serum (FBS, Biowest, Kansas City, MO, USA) and antibiotic and antimycotic agents (Gibco, Fisher Scientific UK Ltd, Loughborough, UK). The cultures were kept at 37 °C in a humidified atmosphere with 5% CO2.
(§2) After seeding 10 × 10^3 cells per well in transparent 96-well plates, the cells were incubated for 24 h in DMEM medium with FBS. Then, the cells were incubated with different concentrations of HO-AAVPA (0.5, 1.0, 1.5, 2.0, and 2.5 mM) and VPA (0.625, 1.25, 2.5, 5.0, and 7.5 mM). After 48 h of incubation, the supernatant was removed. Then, 20 μL of MTT solution (0.5 mg/mL) in buffer was added, and the cells were incubated at 37 °C for 4 h. After the MTT solution was removed from all the wells, the formazan salts were solubilized with 100 μL of DMSO, and the absorbance of each well was read at 550 nm on a spectrophotometer (Multiskan EX Microplate Photometer, Thermo Scientific, Mexico).

The nature of data set [8]: Cell viability by MTT assay. The data set is classed as cell-based, human. The note with it: human, SiHa cells, at 2.5 mM. As to the method: as §1, §2
Data set [9] has as its system cervical cancer cells. More on the design: method as in PMID 26942921. The note with it: ref [25], cited from earlier work.

Several values for one entry are separate records, joined by “and”; a condition that tells them apart may be missing. Equal values may be shown once. Entries after “also recorded” stand apart in the source; their conditions may differ.

T1 sequence (Q13547 whole entry): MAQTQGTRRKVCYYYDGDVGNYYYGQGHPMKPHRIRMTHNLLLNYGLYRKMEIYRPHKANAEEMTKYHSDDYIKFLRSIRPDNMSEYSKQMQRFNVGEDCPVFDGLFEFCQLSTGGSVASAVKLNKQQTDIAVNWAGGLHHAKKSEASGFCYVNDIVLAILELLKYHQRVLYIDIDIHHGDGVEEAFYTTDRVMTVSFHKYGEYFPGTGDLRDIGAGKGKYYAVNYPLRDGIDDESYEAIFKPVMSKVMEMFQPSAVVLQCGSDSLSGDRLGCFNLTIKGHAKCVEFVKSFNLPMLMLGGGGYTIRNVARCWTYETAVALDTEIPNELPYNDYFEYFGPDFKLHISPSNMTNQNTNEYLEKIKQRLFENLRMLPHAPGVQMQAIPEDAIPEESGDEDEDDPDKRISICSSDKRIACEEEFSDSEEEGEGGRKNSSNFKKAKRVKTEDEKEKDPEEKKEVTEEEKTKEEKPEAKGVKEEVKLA

In the case of `CCCC(CCC)C(=O)Nc1ccccc1O` [HO-AAVPA, N-(2′-hydroxyphenyl)-2-propylpentanamide], the HMGB1 localization result in data set [1] (HO-AAVPA 0.2 mM, VPA 1.4 mM) was “high amount of HMGB1 in the cytoplasm than in the nucleus; also recorded: greater intensity of translocation of HMGB1 from the nucleus to the cytoplasm”; in data set [1] (low concentrations: HO-AAVPA 0.005 mM, VPA 0.35 mM), “more HMGB1 in the cytoplasm than VPA”. Moreover, the HMGB1 fluorescence intensity entry in data set [1] (HO-AAVPA 0.2 mM, VPA 1.4 mM) is “increase in the fluorescence was more; also recorded: significant increase of HMGB1; also recorded: statistically higher”. In addition, the IC50 in data set [2] is 153 µM and 154 µM; in data set [4] (1 U/well, 30 °C, 50 µM substrate, mean ± SE) it was more than 1 mM; in data set [6] (400 ng/well, 37 °C, 12 µM substrate, mean ± SE) it was more than 1 mM; in [7] (Homo sapiens, SiHa, MTT) it was 1.6 mM. Besides, the half-life in data set [3] was 4 h. Also, the “inhibitory activity on HDAC8” value in [4] (tested at 1-1000 µM) was “no inhibitory activity; also recorded: no inhibition was observed”. The “ROS (O2−·) production” value was “slightly lower, but still higher than the control” in data set [5] (0.2 mM) and “ROS production was greater; also recorded: increased” in [5] (1.4 mM). Besides, the “inhibitory activity on HDAC6” value in [6] (tested at 1-1000 µM) is reported as “no inhibitory activity; also recorded: no inhibition was observed”. The “concentration causing cell death” value in [7] (concentration-dependent) is given as not below 1 mM. Also, in data set [8], the viability at 48 h, 2.5 mM is approximately 25%.
As to `CCCC(CCC)C(=O)O` [VPA, valproic acid, reference compound], in [1] (HO-AAVPA 0.2 mM, VPA 1.4 mM), the HMGB1 localization result is reported as “HMGB1 is expressed in a larger amount in the nucleus; also recorded: observed predominantly in the nucleus” and the HMGB1 fluorescence intensity result was “increase in the fluorescence was more; also recorded: significant increase of HMGB1”. Moreover, the half-life in data set [3] is recorded as 1 h. Besides, the “ROS (O2−·) production” value in [5] (0.2 mM) is reported as “did not have a significant difference in ROS production”. Further, in data set [5] (1.4 mM), the “ROS (O2−·) production” value is on record as “did not have a significant difference in ROS production”. Besides, the “concentration that did not produce significant effect on the proliferation” value in [9] (cervical cancer cells) was 1 mM. Further, the “concentration with cytotoxic effects” value in [9] (other studies) is approximately 3 mM.

(Values after PMC7461584, “N-(2′-Hydroxyphenyl)-2-Propylpentanamide (HO-AAVPA) Inhibits HDAC1 and Increases the Translocation of HMGB1 Levels in Human Cervical Cancer Cells” (International Journal of Molecular Sciences, 2020).)
